In one assay the target is T1, Jack bean urease (Canavalia ensiformis, UniProt P07374).
T1 construct: purchased Sigma-Aldrich
Kind of assay: biochemical.

A further assay concerns the target T2, α-chymotrypsin (Bos taurus, UniProt P00766).
T2 construct: purchased Sigma-Aldrich
Kind of assay: α-Chymotrypsin assay and inhibition. Format: biochemical. The settings on record: substrate N-succinyl-phenylalanine-p-nitroanilide, pH 7.6, 37° C., 30 min pre-incubation; read-out: IC50 value, α-chymotrypsin inhibitory activity.

T1 sequence (P07374 whole entry, looked up): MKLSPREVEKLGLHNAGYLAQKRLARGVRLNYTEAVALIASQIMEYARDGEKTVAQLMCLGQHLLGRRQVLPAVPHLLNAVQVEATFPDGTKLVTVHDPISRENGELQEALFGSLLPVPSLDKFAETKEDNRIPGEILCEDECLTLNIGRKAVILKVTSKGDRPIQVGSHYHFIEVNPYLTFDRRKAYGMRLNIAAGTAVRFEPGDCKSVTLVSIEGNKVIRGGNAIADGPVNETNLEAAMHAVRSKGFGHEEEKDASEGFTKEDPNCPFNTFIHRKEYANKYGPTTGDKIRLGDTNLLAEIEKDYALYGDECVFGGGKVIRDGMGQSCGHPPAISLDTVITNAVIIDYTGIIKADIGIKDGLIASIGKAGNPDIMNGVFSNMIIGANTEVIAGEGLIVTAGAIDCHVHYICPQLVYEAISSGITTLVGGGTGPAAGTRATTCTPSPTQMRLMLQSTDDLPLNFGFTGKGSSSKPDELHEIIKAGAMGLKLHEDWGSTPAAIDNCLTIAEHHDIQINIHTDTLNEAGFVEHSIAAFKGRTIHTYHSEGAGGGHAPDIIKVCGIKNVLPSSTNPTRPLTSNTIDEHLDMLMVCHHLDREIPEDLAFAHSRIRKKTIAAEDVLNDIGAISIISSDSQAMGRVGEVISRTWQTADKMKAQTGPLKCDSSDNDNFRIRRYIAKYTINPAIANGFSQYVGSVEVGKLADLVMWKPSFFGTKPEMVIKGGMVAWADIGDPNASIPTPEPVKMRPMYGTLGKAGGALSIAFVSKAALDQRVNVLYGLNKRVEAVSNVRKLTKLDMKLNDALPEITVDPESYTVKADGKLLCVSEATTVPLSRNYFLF
Procedure for Jack bean urease: Reaction mixtures comprising a 25 μL solution of enzyme (Jack bean urease, Sigma-Aldrich, specific activity 15 EU/mg) and 55 μL of buffer (0.01 M K2HPO43H2O, 1 MM EDTA 0.01 M LiCl; pH 8.2) containing 100 mM urea were incubated with 5 μL of the test compounds (0.01 μM-1 mM, dissolved in DMSO) at 30° C. for 15 min in 96-well plates. Urease activity was determined by measuring ammonia production using the indophenol method, 45 μL, of phenol reagent (1% w/v phenol and 0.005% w/v sodium nitroprusside) and 70 μL of alkali reagent (0.5% w/v NaOH and 0.1% w/v NaOCI) were added to each well (the final reaction volume was 200 μL). The increasing absorbance at 630 nm was measured after 50 min using a microplate reader (Molecular Device). All reactions were performed in triplicate. The results (change in absorbance per min) were processed using SoftMax Pro software (Molecular Device). Percent inhibitions were calculated using the formula 100−(ODtest well/ODcontrol×100).
Procedure for α-chymotrypsin: For the determination of α-chymotrypsin inhibitory activity the literature protocol was followed. In brief α-chymotrypsin (9 units/mL in 50 mM Tris-HCl buffer, pH 7.6; Sigma-Aldrich) was pre-incubated with the compound (3.02×10^−5 g/100 μL) for 30 min at 37° C. and then 100 μL of substrate solution (N-succinyl-phenylalanine-p-nitroanilide; 1 mg/mL) in 50 mM Tris-HCl buffer, pH 7.6) was added to start the enzyme reaction. The absorbance of released p-nitroaniline was continuously monitored at 410 nm until a significant color change had achieved. All reactions were performed in triplicate. Percent inhibitions were calculated using the formula 100-(ODtest well/ODcontrol×100).

In the case of `O=C(Nc1ccc([N+](=O)[O-])cc1)Nc1ccc([N+](=O)[O-])cc1` [Urchym, N-4-nitrophenyl-N′-4′-nitrophenylurea], the values for the IC50 against Jack bean urease and at α-chymotrypsin were 1250 nM and 3150 ± 140 nM, respectively.

Usually IC50 stands for the concentration at which inhibition is half-maximal.

Values taken from patent US20080221214A1, “Process for the preparation of "Urchym" a urease and alpha-chymotrypsin enzyme inhibitory drug” (priority 2006, published 2008).
